The values below come from US20240024488A1, “COMPOUNDS AND USES THEREOF” (Foghorn Therapeutics Inc., priority 2020, published 2024).

Each structure is given as a SMILES string. Bounds are passed on as bounds.

Experiment [1] deals with T1, HiBit-BRG1 fusion protein (Homo sapiens, UniProt P51532).
T1 construct: expressed in transfected cells
Briefly: HiBiT-BRG1 cell-based degradation assay (Nano-Glo HiBiT Lytic Detection, 24 h). As to conditions: HeLa cell line expressing HiBit-BRG1 and LgBit; for Dmax: read-out: BRG1 HiBit Degradation Maximum (%); for DC50: read-out: BRMG1 HiBit Degradation IC50. Put shortly:
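Luminescence from reconstituted NanoBiT luciferase after lytic detection served as read-out of remaining HiBit-BRG1 in stable HeLa cells, which also express LgBit. Cells were seeded at 5000 per well and incubated with compound for 24 h. DMSO and a 2 μM known degrader defined the control range.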

The next experiment addresses T2, HiBit-BRM fusion protein (Homo sapiens, UniProt P51531).
T2 construct: expressed in transfected cells
Briefly: HiBiT-BRM cell-based degradation assay (Nano-Glo HiBiT Lytic Detection, 24 h). The following applies: HeLa cell line expressing HiBiT-BRM; for DC50: read-out: BRM HiBit Degradation IC50. Put shortly: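 HeLa cells stably expressing HiBiT-BRM were dosed with compounds (10-point 3-fold dilutions, 30 μM final top dose, duplicate) for 24 h. HiBiT signal was read by lytic LgBiT complementation luminescence. Percent degradation was normalised to DMSO (high control) and 2 μM of a reference BRM/BRG1 degrader (low control).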
(HiBiT is a short tag that completes a luciferase, so light tracks the accessible tagged protein.)

T2 sequence (P51531 whole entry, the tested form may be a part): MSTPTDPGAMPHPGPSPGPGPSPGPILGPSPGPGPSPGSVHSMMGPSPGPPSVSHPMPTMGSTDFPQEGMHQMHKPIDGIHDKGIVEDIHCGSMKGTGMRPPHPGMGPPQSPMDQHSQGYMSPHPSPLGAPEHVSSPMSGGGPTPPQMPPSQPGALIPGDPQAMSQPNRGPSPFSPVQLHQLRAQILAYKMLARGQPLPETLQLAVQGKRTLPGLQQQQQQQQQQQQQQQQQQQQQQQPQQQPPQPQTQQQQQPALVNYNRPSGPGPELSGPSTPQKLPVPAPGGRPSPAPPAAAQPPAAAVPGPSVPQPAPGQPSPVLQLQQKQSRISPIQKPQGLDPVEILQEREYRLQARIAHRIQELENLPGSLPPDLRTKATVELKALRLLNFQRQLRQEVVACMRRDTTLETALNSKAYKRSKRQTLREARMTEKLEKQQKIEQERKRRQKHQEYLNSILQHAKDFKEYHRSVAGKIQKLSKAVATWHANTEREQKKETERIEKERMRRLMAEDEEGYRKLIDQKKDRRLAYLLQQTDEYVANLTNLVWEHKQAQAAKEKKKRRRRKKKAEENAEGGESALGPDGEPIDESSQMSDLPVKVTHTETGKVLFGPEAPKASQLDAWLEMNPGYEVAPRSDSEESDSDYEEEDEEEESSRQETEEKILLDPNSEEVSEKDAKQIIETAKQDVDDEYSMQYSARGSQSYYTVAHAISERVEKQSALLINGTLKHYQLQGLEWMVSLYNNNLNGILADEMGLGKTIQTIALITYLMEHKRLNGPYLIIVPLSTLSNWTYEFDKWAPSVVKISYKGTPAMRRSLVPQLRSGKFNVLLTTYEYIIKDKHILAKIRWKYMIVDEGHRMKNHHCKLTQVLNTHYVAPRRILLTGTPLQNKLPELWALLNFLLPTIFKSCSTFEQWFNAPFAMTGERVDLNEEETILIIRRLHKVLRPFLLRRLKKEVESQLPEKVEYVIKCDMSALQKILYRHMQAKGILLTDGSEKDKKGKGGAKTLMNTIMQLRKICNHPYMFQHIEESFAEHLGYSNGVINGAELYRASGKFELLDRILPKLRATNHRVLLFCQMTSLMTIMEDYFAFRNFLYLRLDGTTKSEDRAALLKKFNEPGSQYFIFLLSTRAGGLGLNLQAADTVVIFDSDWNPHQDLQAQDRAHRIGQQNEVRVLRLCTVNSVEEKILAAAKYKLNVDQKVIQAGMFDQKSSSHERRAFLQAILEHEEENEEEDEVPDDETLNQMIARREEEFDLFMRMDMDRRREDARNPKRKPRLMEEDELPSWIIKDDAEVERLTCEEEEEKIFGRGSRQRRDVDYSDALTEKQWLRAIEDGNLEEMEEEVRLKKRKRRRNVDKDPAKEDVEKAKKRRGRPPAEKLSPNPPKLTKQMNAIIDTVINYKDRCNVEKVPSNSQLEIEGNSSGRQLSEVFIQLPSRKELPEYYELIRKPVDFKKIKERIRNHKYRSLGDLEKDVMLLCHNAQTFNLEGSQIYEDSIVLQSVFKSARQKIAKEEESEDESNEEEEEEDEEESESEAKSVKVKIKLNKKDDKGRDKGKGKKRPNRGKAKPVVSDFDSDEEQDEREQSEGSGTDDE
T1 sequence (P51532 whole entry, the tested form may be a part): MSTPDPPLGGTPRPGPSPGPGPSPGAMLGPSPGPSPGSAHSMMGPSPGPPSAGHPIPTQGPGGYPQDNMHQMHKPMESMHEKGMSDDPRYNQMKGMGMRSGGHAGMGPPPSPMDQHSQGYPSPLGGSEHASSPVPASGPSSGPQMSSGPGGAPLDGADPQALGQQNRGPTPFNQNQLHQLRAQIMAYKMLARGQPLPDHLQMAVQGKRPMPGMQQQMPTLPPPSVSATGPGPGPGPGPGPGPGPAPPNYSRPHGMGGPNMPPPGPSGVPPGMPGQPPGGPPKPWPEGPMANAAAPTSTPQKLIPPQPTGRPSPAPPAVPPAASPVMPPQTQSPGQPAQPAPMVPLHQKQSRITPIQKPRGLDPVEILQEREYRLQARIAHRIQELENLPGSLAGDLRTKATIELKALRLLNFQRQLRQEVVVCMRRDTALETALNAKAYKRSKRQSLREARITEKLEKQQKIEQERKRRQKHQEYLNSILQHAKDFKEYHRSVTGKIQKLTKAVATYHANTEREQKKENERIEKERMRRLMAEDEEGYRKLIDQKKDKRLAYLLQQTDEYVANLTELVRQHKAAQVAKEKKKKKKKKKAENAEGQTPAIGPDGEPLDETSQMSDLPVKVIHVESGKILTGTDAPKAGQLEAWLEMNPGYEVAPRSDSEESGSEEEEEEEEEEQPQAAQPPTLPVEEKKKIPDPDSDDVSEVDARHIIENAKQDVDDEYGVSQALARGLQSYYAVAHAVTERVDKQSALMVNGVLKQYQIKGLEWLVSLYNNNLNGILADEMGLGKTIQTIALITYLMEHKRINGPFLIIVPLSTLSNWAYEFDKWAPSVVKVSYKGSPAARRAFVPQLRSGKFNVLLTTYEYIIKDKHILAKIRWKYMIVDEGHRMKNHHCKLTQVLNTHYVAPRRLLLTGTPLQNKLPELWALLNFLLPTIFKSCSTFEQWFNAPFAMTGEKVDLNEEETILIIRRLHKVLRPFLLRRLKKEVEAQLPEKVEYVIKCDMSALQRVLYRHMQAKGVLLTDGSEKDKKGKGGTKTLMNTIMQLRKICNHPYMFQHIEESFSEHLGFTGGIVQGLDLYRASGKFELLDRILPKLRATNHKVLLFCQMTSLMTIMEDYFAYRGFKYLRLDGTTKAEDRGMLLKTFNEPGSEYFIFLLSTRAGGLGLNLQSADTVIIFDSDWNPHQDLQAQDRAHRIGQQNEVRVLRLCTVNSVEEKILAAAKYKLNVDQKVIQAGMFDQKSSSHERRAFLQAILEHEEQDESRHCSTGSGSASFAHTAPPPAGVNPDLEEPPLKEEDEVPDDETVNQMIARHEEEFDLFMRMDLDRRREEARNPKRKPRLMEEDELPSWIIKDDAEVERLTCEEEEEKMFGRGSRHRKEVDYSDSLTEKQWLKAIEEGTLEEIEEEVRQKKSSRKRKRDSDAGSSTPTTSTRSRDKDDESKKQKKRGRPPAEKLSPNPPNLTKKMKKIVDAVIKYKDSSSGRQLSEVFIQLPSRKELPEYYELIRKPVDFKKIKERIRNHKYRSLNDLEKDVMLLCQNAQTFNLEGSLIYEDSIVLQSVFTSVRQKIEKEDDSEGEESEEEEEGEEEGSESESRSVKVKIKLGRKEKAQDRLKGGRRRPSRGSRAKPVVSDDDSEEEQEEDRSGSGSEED

`Cc1ncsc1-c1ccc([C@H](C)NC(=O)[C@@H]2C[C@@H](O)CN2C(=O)[C@@H](c2cc(OCCN[C@@H]3CCc4[nH]c5nnc(-c6ccccc6O)cc5c4C3)no2)C(C)C)cc1` [Compound 181, (2S,4R)-4-hydroxy-1-((R)-2-(3-(2-(((R)-3-(2-hydroxyphenyl)-6,7,8,9-tetrahydro-5H-pyridazino[3,4-b]indol-6-yl)amino)ethoxy)isoxazol-5-yl)-3-methylbutanoyl)-N-((S)-1-(4-(4-methylthiazol-5-yl)phenyl)ethyl)pyrrolidine-2-carboxamide]: in experiment [1], the Dmax is < 50%. Also, on HiBit-BRM fusion protein, the “BRM HiBit Degradation Maximum (%)” value is “A (“A” indicates maximum degradation ≥ 75%)” and the DC50 was > 100 nM.
Turning to `Cc1ncsc1-c1ccc([C@H](C)NC(=O)[C@@H]2C[C@@H](O)CN2C(=O)[C@@H](c2cc(OCCNC(=O)C(=O)N3CC(c4cc5cc(-c6ccccc6O)nnc5[nH]4)C3)no2)C(C)C)cc1` (racemic) [Compound 240, (2S,4R)-4-hydroxy-1-((R)-2-(3-(2-(2-(3-(3-(2-hydroxyphenyl)-7H-pyrrolo[2,3-c]pyridazin-6-yl)azetidin-1-yl)-2-oxoacetamido)ethoxy)isoxazol-5-yl)-3-methylbutanoyl)-N-((S)-1-(4-(4-methylthiazol-5-yl)phenyl)ethyl)pyrrolidine-2-carboxamide], in experiment [1], the Dmax was > 50% and the DC50 was > 1000 nM. Further, on HiBit-BRM fusion protein, the “BRM HiBit Degradation Maximum (%)” value was “A (“A” indicates maximum degradation ≥ 75%)” and the DC50 was > 100 nM.
In the case of `Cc1ncsc1-c1ccc(CNC(=O)[C@@H]2C[C@@H](O)CN2C(=O)[C@@H](NC(=O)CCCCCCCC(=O)N2CC(c3c[nH]c4nnc(-c5ccccc5O)cc34)C2)C(C)(C)C)cc1` [Compound 36, (2S,4R)-4-hydroxy-1-((S)-2-(9-(3-(3-(2-hydroxyphenyl)-7H-pyrrolo[2,3-c]pyridazin-5-yl)azetidin-1-yl)-9-oxononanamido)-3,3-dimethylbutanoyl)-N-(4-(4-methylthiazol-5-yl)benzyl)pyrrolidine-2-carboxamide], the Dmax in experiment [1] is < 50%. Besides, the “BRM HiBit Degradation Maximum (%)” value on HiBit-BRM fusion protein is reported as “C (“C” indicates maximum degradation < 50%)”.
For the compound `Cc1ncsc1-c1ccc([C@H](C)NC(=O)[C@@H]2C[C@@H](O)CN2C(=O)[C@@H](c2cc(OCCN3CCC4(CC3)CC(c3cc5cc(-c6ccccc6O)nnc5[nH]3)C4)no2)C(C)C)cc1` (racemic) [Compound 290, (2S,4R)-4-hydroxy-1-((R)-2-(3-(2-(2-(3-(2-hydroxyphenyl)-7H-pyrrolo[2,3-c]pyridazin-6-yl)-7-azaspiro[3.5]nonan-7-yl)ethoxy)isoxazol-5-yl)-3-methylbutanoyl)-N-((S)-1-(4-(4-methylthiazol-5-yl)phenyl)ethyl)pyrrolidine-2-carboxamide], in experiment [1], the Dmax was > 50% and the DC50 is > 100 nM. Also, on HiBit-BRM fusion protein, the “BRM HiBit Degradation Maximum (%)” value was “A (“A” indicates maximum degradation ≥ 75%)” and the DC50 was > 10 nM.
Consider `Cc1ncsc1-c1ccc([C@H](C)NC(=O)[C@@H]2C[C@@H](O)CN2C(=O)[C@@H](c2cc(OCCCN3CC4(Cc5cc(-c6ccccc6O)nnc5N4)C3)no2)C(C)C)cc1` (racemic) [Compound 84, (2S,4R)-4-hydroxy-1-((R)-2-(3-(3-(3′-(2-hydroxyphenyl)-5′,7′-dihydrospiro[azetidine-3,6′-pyrrolo[2,3-c]pyridazin]-1-yl)propoxy)isoxazol-5-yl)-3-methylbutanoyl)-N-((S)-1-(4-(4-methylthiazol-5-yl)phenyl)ethyl)pyrrolidine-2-carboxamide], for which, in experiment [1], the Dmax is < 50%. For the same compound, on HiBit-BRM fusion protein, the “BRM HiBit Degradation Maximum (%)” value is reported as “C (“C” indicates maximum degradation < 50%)”.
For `Cc1ncsc1-c1ccc([C@H](C)NC(=O)[C@@H]2C[C@@H](O)CN2C(=O)[C@@H](c2cc(OCCN3CCC(C)(c4cc5cc(-c6ccccc6O)nnc5[nH]4)CC3)no2)C(C)C)cc1` (racemic) [Compound 276, (2S,4R)-4-hydroxy-1-((R)-2-(3-(2-(4-(3-(2-hydroxyphenyl)-7H-pyrrolo[2,3-c]pyridazin-6-yl)-4-methylpiperidin-1-yl)ethoxy)isoxazol-5-yl)-3-methylbutanoyl)-N-((S)-1-(4-(4-methylthiazol-5-yl)phenyl)ethyl)pyrrolidine-2-carboxamide], in experiment [1], the Dmax was > 50% and the DC50 was > 1000 nM. On HiBit-BRM fusion protein, the “BRM HiBit Degradation Maximum (%)” value is on record as “A (“A” indicates maximum degradation ≥ 75%)” and the DC50 is > 10 nM.
The like results for `Cc1ncsc1-c1ccc([C@H](C)NC(=O)[C@@H]2C[C@@H](O)CN2C(=O)[C@@H](c2cc(OCCN3CC(CCc4[nH]c5nnc(-c6ccccc6O)cc5c4C)C3)no2)C(C)C)cc1` (single isomer, unassigned) [Compound 198] were, in that order, > 75%, > 100 nM, “A (“A” indicates maximum degradation ≥ 75%)” and > 100 nM.
Consider `Cc1ncsc1-c1ccc([C@H](C)NC(=O)[C@@H]2C[C@@H](O)CN2C(=O)[C@@H](c2cc(OCCNC(=O)[C@@H]3CCc4[nH]c5nnc(-c6ccccc6O)cc5c4C3)no2)C(C)C)cc1` (single isomer, unassigned) [Compound 172], for which, in experiment [1], the Dmax was < 50%. Also, on HiBit-BRM fusion protein, the “BRM HiBit Degradation Maximum (%)” value is “A (“A” indicates maximum degradation ≥ 75%)” and the DC50 was > 10 nM.
Regarding `Cc1ncsc1-c1ccc([C@H](C)NC(=O)[C@@H]2C[C@@H](O)CN2C(=O)[C@@H](c2cc(OCCNCCN3CC(c4cc5cc(-c6ccccc6O)nnc5[nH]4)C3)no2)C(C)C)cc1` (racemic) [Compound 300], the Dmax in experiment [1] is > 50%. Besides, at HiBit-BRM fusion protein, the “BRM HiBit Degradation Maximum (%)” value is on record as “A (“A” indicates maximum degradation ≥ 75%)” and the DC50 is > 100 nM.
`Cc1ncsc1-c1ccc([C@H](C)NC(=O)[C@@H]2C[C@@H](O)CN2C(=O)[C@@H](c2cc(OCCN3C[C@@H]4[C@H](C3)[C@H]4c3cc4cc(-c5cccc(Cl)c5O)nnc4[nH]3)no2)C(C)C)cc1` (racemic) [Compound 110, (2S,4R)-1-((R)-2-(3-(2-((1R,5S,6R)-6-(3-(3-chloro-2-hydroxyphenyl)-7H-pyrrolo[2,3-c]pyridazin-6-yl)-3-azabicyclo[3.1.0]hexan-3-yl)ethoxy)isoxazol-5-yl)-3-methylbutanoyl)-4-hydroxy-N-((S)-1-(4-(4-methylthiazol-5-yl)phenyl)ethyl)pyrrolidine-2-carboxamide]: the Dmax in experiment [1] was < 50%. On HiBit-BRM fusion protein, the “BRM HiBit Degradation Maximum (%)” value is “A (“A” indicates maximum degradation ≥ 75%)” and the DC50 is > 10 nM.
As for `Cc1ncsc1-c1ccc([C@H](C)NC(=O)[C@@H]2C[C@@H](O)CN2C(=O)[C@@H](c2cc(OCCN3CC[C@@H](c4c(C)[nH]c5nnc(-c6ccccc6O)cc45)C3)no2)C(C)C)cc1` (single isomer, unassigned) [Compound 232], the Dmax in experiment [1] was < 50%. Moreover, on HiBit-BRM fusion protein, the “BRM HiBit Degradation Maximum (%)” value is listed as “C (“C” indicates maximum degradation < 50%)” and the DC50 is > 1000 nM.
For `Cc1ncsc1-c1ccc([C@H](C)NC(=O)[C@@H]2C[C@@H](O)CN2C(=O)[C@@H](c2cc(N3CCC(C(=O)N4CCc5[nH]c6nnc(-c7ccccc7O)cc6c5[C@@H]4C)CC3)no2)C(C)C)cc1` (racemic) [Compound 86, (2S,4R)-4-hydroxy-1-((R)-2-(3-(4-((S)-3-(2-hydroxyphenyl)-5-methyl-6,7,8,9-tetrahydro-5H-pyrido[3′,4′:4,5]pyrrolo[2,3-c]pyridazine-6-carbonyl)piperidin-1-yl)isoxazol-5-yl)-3-methylbutanoyl)-N-((S)-1-(4-(4-methylthiazol-5-yl)phenyl)ethyl)pyrrolidine-2-carboxamide], the Dmax in experiment [1] is < 50%. Besides, at HiBit-BRM fusion protein, the “BRM HiBit Degradation Maximum (%)” value was “A (“A” indicates maximum degradation ≥ 75%)” and the DC50 was > 100 nM.
As for `Cc1ncsc1-c1ccc([C@H](C)NC(=O)[C@@H]2C[C@@H](O)CN2C(=O)[C@@H](c2cc(OCCCN3CCN(Cc4cc5cc(-c6ccccc6O)nnc5[nH]4)CC3)no2)C(C)C)cc1` (racemic) [Compound 214, (2S,4R)-4-hydroxy-1-((R)-2-(3-(3-(4-((3-(2-hydroxyphenyl)-7H-pyrrolo[2,3-c]pyridazin-6-yl)methyl)piperazin-1-yl)propoxy)isoxazol-5-yl)-3-methylbutanoyl)-N-((S)-1-(4-(4-methylthiazol-5-yl)phenyl)ethyl)pyrrolidine-2-carboxamide], in experiment [1], the Dmax is > 75% and the DC50 was > 100 nM. In addition, on HiBit-BRM fusion protein, the “BRM HiBit Degradation Maximum (%)” value is given as “A (“A” indicates maximum degradation ≥ 75%)” and the DC50 is > 100 nM.
Regarding `Cc1ncsc1-c1ccc([C@H](C)NC(=O)[C@@H]2C[C@@H](O)CN2C(=O)[C@@H](c2cc(C3CCN(C(=O)[C@]4(N)CCc5[nH]c6nnc(-c7ccccc7O)cc6c5C4)CC3)no2)C(C)C)cc1` (relative stereo) [Compound 104, (2S,4R)-1-[(2R)-2-(3-{1-[(6R*)-6-amino-3-(2-hydroxyphenyl)-5H,7H,8H,9H-pyridazino[3,4-blindole-6-carbonyl]piperidin-4-yl}-1,2-oxazol-5-yl)-3-methylbutanoyl]-4-hydroxy-N-[(1S)-1-[4-(4-methyl-1,3-thiazol-5-yl)phenyl]ethyl]pyrrolidine-2-carboxamide], the Dmax in experiment [1] was < 50%. Moreover, on HiBit-BRM fusion protein, the “BRM HiBit Degradation Maximum (%)” value is “B (“B” indicates maximum degradation ≥ 50%)” and the DC50 is > 100 nM.
